Where two headings read alike, the source gives them in different places.
Columns and labels:
[1] = test system: P. falciparum 3D7; test: P. falciparum 3D7 lactate dehydrogenase whole parasite assay; assay type: cell-based, Plasmodium falciparum; settings: for EC50: Plasmodium falciparum
Method: The EC50 determinations of the isolated compounds were performed with 16-point dose-response curves. Each concentration was evaluated in triplicate (concentration range of 100–0.00305 µM) using the P. falciparum 3D7 lactate dehydrogenase whole parasite assay as previously described by Pérez-Moreno et al., 2016 [25]. The Plasmodium falciparum 3D7 strain is a clone of the NF54 strain, which was previously isolated from a patient. The parasites were maintained in O^+ human erythrocytes at 5% haematocrit and 0.1–8% parasitaemia, with incubation at 37 °C, 1% O2, 5% CO2, and 94% N2 in complete medium (10.4 g/L RPMI 1640, 150 μM hypoxanthine, 12.5 μg/mL gentamicin, 0.2% NaHCO3, 0.5% albuMAX II, 2% human O^+ serum). The […] (LDH) assay was performed in 384-well plates using late-ring/early trophozoite synchronized parasites at 2% hematocrit and 0.25% parasitaemia. Twenty-five microliters of (25 µL) parasite culture were incubated with 5 µL of the test compounds (parasite medium/100 nM chloroquine used as positive/negative growth controls) for 72 h, after which the plates were frozen for 4 h, thawed for 1 h at room temperature before adding 70 µL of freshly prepared LDH solution (1 U/mL diaphorase, 143 µM APAD, 143 mM sodium L-lactate, 178.75 µM NBT, 0.7% Tween 20, 100 mM Tris-HCL) at pH 8.0. Plates were briefly shaken and incubated for 10 min (in the dark), and absorbance was read at 650 nm in an Envision plate reader (Perkin Elmer, Waltham, MA, USA).
(§1) The EC50 of all the biological assays were computed with the Genedata Screener application (Genedata AG, Basel, Switzerland) using the equation below to calculate percentage inhibition: Percentage inhibition=[1−(Abswell−Absneg/Abspos−Absneg)]×100
(§2) Here, Abswell = absorbance/well, Abspos = average absorbance in positive control wells, and Absneg = average absorbance in negative wells.

[2] = test system: T. cruzi Tulahuen C4; test: Transgenic T. cruzi β-D-galactosidase assay in infected L6 cells; assay type: cell-based, Trypanosoma cruzi; settings: for EC50: 96 h, infected L6 host cells, β-galactosidase readout, read-out: Antiparasitic EC50 T. cruzi Tulahuen C4; for activity against T. cruzi Tulahuen (in words): whole parasites, extracts in HTS / bioassay-guided testing
Method: as §1, §2
The EC50 determinations of the isolated compounds were performed with 16-point dose-response curves. Each concentration was evaluated in triplicate (concentration range of 50–0.00152 µM) in the transgenic T. cruzi β-D-galactosidase assay as previously described by Annang et al., 2014 [27]. The T. cruzi Tulahuen strain used is a genetically modified strain that expresses the Escherichia coli β-galactosidase gene, lacZ [28]. It was kindly supplied by Marcel Kaiser (Swiss Tropical and Public Health Institute). The parasites were generally maintained in a growth medium (RPMI 1640 supplemented with 10% inactivated fetal bovine serum (iFBS), 100 µg/mL streptomycin, 100 U/mL penicillin, 2 mM L-glutamine) at 37 °C, 5% CO2. For the assay, transgenic trypomastigote stage parasites were used to infect L6 rat skeletal muscle cells (host). Fifty-five microliters (55 µL) of the infected L6 cell culture were dispensed into 384-well assay plates (2 × 10^3 infected L6 cells/well) containing 5 µL of the test compounds (parasite medium/10 µgmL^−1 benznidazole were used as positive/negative growth controls) and incubated for 96 h at 37 °C, after which 15 µL of assay solution (100 µM CRPG and 0.1% NP40 made up in PBS) were added to each well, and plates were further incubated in the dark for 4 h at 37 °C. Absorbance in the wells was read at 585 nm in an Envision plate reader (Perkin Elmer, Waltham, MA, USA).

[3] = MTT-based cytotoxicity assay in HepG2 cells; assay type: cell-based; settings: human, Hep G2 liver carcinoma cells (ATCC HB-8065); 72 h, MTT; read-out: Cytotoxic EC50 Hep G2
Method: as §1, §2
(§3) The EC50 determinations of the isolated compounds were performed with 12-point dose-response curves. Each concentration was evaluated in triplicate (concentration range of 50–0.0244 µM) in an MTT-based assay performed in liver carcinoma Hep G2 HB-8065 ATCC (American Type Culture Collection) cells as previously described by Annang et al., 2020 [29]. Cells (96-well plates were used with seeding at 1 × 10^4 cells/well) were cultured in 200 µL MEM medium per well at 37 °C, 5% CO2 for 24 h, after which the spent media were replaced with 200 µL MEM medium and 1 μL of test compounds. DMSO (0.5%), 8 mM methyl methanesulfonate and doxorubicin were used as positive, negative, and standard drug controls, respectively. After 72 h incubation with the test compounds at 37 °C, 100 µL of 0.5 mg/mL MTT solution diluted in MEM without phenol red was added to each well, and plates were briefly shaken and further incubated for 3 h at 37 °C. The supernatant in each well was carefully discarded and replaced with 100 µL of DMSO, and plates were gently shaken (to solubilize the formazan formed) before reading the absorbance at 570 nm in a Victor2 plate reader (Perkin Elmer, USA).

[4] = test system: Hep G2 cells; test: MTT-based cytotoxicity assay in HepG2 cells; assay type: cell-based; settings: Hep G2 EC50 versus P. falciparum 3D7 EC50
Method: as §1, §2, §3

[5] = Cytotoxicity assay (resazurin) in L6 rat skeletal muscle cells; assay type: cell-based; settings: L6 rat skeletal muscle cells (ATCC CRL-1458), read-out: Cytotoxic EC50 L6
Method: Seeding of the L6 cells was done in 96-well plates at 4 × 10^3 cells per well in 100 µL volume; they were then cultured for 24 h. Ten millimolar (10 mM) DMSO stocks of the compounds to be tested were used to prepare 16-point dose-response curves. Each concentration was evaluated in triplicate (using the cell culture medium as diluent) at a final volume of 300 µL (compound concentration range of 50–0.00152 µM and DMSO at 0.5 %). The spent growth medium from the 24 h-seeded cells was carefully replaced with 100 µL of the prepared working concentrations of the compounds to be tested and incubated for 72 h. The spent medium was again carefully replaced (without disturbing the layer of cells at the bottom of each well) with 100 µL fresh medium, after which 20 µL of 0.02% resazurin (previously diluted in 1X PBS) was added to the wells and incubated for 2 h in the dark at 37 °C. The plates were then shaken for 5 s, and fluorescence was read at 570–590 nm in a TECAN Infinite F200 fluorimeter.

[6] = test system: P. falciparum 3D7; test: P. falciparum 3D7 lactate dehydrogenase whole parasite assay; assay type: cell-based, Plasmodium falciparum; settings: whole parasites; extracts in HTS / bioassay-guided testing
[7] = test system: three different cell lines; parameters: method as in PMID 10656571; settings: at 100 µM; cited from earlier work
[8] = C3 ketone (1) versus C3 hydroxyl (2)
[9] = 3D7 / TULAHUEN, read-out: antiparasitic EC50 against both parasites (range)
[10] = 3D7, 72 h, LDH readout, 16-point curves in triplicate, read-out: Antiparasitic EC50 P. falciparum 3D7
[11] = Trypanosoma cruzi, TULAHUEN, L6, 96 h

| SMILES | EC50 [1, 10] | EC50 [2, 11] | EC50 at 72 h [3] | Selectivity index (SI), Hep G2 in comparison to activity in P. falciparum 3D7 [4] | EC50 at 72 h [5] | activity against T. cruzi Tulahuen (in words) [2] | activity against P. falciparum 3D7 (in words) [6] | other results |
| --- | --- | --- | --- | --- | --- | --- | --- | --- |
| CC1(C)C(=O)CC[C@]2(C)[C@H]3Cc4c(O)cc5c(c4O[C@]3(C)CC[C@@H]12)CN(CCO)C5=O [Compound 1, Memnobotrin C] | 40 ± 2 nM | 226 nM | 1200 nM | 30 | < 98 nM | – | – | fold improvement of biological activity against P. falciparum 3D7 compared to compound 2 [1, 8]: 5 fold; EC50 [1, 9]: 40 to 1370 nM; EC50 [2]: 266 ± 24 nM; fold improvement of biological activity against T. cruzi Tulahuen C4 compared to compound 2 [2, 8]: 5 fold |
| CC1(C)[C@@H](O)CC[C@]2(C)[C@H]3Cc4c(O)cc5c(c4O[C@]3(C)CC[C@@H]12)CN(CCO)C5=O [Compound 2, memnobotrin D] | 201 ± 16 nM | 1370 ± 18 nM | 4530 nM | 22.5 | 1390 ± 40 nM | – | – | EC50 [1, 9]: 40 to 1370 nM |
| CC(=O)O[C@H]1CC[C@]2(C)[C@H]3Cc4c(O)cc5c(c4O[C@]3(C)CC[C@H]2C1(C)C)CN(CCO)C5=O [Compound 3, 8-epi-memnobotrin B] | 7170 ± 50 nM | 41770 ± 10 nM | – | – | – | – | – | fold lower potency against P. falciparum 3D7 in comparison to compound 1 [1]: 179 fold; fold lower potency against T. cruzi Tulahuen C4 in comparison to compound 1 [2]: 157 fold |
| CC(=CCc1c(O)cc2c(c1O)C(=O)OC2)CCC=C(C)CCCC(C)(C)OC1OC(CO)C(O)C(O)C1O (stereo not shown) [Compound 4] | 243 ± 23 nM | 934 ± 88 nM | 4840 nM | 19.9 | – | – | – | – |
| C/C(=C\CCC1(C)C=Cc2c(cc3c(c2O)C(=O)OC3)O1)CCC(O)C(C)(C)O (stereo not shown) [Compound 5] | 8000 ± 200 nM | > 50000 nM | – | – | > 50000 nM | low or no biological activity | low or no biological activity | – |
| Cc1cc(O)c2c(c1)O[C@]1(C)CC[C@H]3C(C)(C)[C@@H](O)CC[C@]3(C)[C@H]1C2 [Compound 6] | 4000 ± 100 nM | 7000 ± 200 nM | – | – | 2000 ± 100 nM | low or no biological activity | low or no biological activity | – |
| C=C1CC[C@H]2C(C)(C)C(=O)CC[C@]2(C)[C@H]1Cc1c(O)cc2c(c1O)C(=O)OC2 [Compound 7] | > 100000 nM | > 50000 nM | – | – | > 50000 nM | low or no biological activity | low or no biological activity | – |
| CC1(C)[C@@H](O)CC[C@]2(C)[C@H]3Cc4c(O)cc5c(c4O[C@]3(C)CC[C@@H]12)C(=O)OC5 [Compound 8] | 17800 ± 100 nM | > 50000 nM | – | – | – | low or no biological activity | low or no biological activity | – |
| CC(=O)O[C@H]1CC[C@]2(C)[C@H]3Cc4c(O)cc5c(c4O[C@@]3(C)CC[C@H]2C1(C)C)CN(CCO)C5=O [Memnobotrin B] | – | – | – | – | – | – | – | cytotoxic activity, inhibition percentages [7]: 80–90% |
